Source: publication PMC6007452 (Journal of Insect Science, 2018)

T1: HaTreh-1 (soluble trehalase) (Helicoverpa armigera, UniProt A0A6B8YU37)
T1 sequence (A0A6B8YU37 24-571): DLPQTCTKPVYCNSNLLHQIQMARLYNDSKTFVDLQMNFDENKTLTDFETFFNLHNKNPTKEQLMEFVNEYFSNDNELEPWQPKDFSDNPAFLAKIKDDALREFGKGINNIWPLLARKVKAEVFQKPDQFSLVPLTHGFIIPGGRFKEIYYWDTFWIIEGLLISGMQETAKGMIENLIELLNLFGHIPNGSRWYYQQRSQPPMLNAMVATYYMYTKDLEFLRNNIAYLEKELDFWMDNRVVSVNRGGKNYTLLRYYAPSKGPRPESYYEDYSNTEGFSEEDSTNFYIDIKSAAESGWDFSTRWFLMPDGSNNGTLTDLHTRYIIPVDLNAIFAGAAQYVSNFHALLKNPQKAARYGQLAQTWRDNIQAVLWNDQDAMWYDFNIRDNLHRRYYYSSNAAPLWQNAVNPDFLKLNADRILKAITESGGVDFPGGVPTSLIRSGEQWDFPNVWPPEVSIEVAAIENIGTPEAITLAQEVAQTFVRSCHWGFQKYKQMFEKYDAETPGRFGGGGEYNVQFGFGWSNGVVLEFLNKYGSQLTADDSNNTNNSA

B1: HaTreh-1 (soluble trehalase) (Helicoverpa armigera) (protein)
chain: T1 sequence (A0A6B8YU37 24-571)

Experiments:
[1] = biological target: T1, HaTreh-1 (soluble trehalase); type: biochemical
[2] = substrate: OC[C@H]1O[C@H](O[C@H]2O[C@H](CO)[C@@H](O)[C@H](O)[C@H]2O)[C@H](O)[C@@H](O)[C@@H]1O; test: enzyme kinetics; type: biochemical, Helicoverpa armigera

Row | Molecule | Ki [1] [µM] | Km [2] [mM]
1 | O[C@H]1[C@H](O)[C@@H](O)CN2CC[C@H](O)[C@H]12 [castanospermine] | 6.7 | 
2 | B1 |  | 72.8
